Reference: patent US9115137B2, “2,3,4,5-tetrahydro-1H-pyrido[4,3-B]indole compounds and methods of use thereof” (priority 2008, dated 2015)

Key:
[1] = biological target: T1, human recombinant adrenergic α2C receptor (Homo sapiens, UniProt P18825); experiment: Adrenergic α2C radioligand binding ([3H]MK-912); details: compound at 1 μM; insect Sf9 cells; read-out: Adrenergic (1 μM) α2C, percent inhibition of specific binding
T1 construct: expressed in transfected cells; host or cells: insect Sf9 cells
T1 sequence (P18825 1-462): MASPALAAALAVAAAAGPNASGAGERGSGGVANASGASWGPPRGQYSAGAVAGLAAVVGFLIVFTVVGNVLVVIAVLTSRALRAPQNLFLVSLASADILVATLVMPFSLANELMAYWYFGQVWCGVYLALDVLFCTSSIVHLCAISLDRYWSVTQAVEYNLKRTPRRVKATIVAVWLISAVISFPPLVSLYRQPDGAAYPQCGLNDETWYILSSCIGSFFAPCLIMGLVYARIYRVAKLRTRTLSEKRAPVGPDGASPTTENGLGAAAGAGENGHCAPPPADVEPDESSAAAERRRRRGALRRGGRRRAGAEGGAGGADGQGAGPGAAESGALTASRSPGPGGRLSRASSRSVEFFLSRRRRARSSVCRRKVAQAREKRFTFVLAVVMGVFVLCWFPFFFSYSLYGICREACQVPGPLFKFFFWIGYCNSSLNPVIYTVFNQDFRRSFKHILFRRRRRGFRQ
Experimental: To evaluate in radioligand binding assays the activity of compounds of the invention, human recombinant adrenergic α2C receptor expressed in insect Sf9 cells (Uhlen S et al. J Pharmacol Exp Ther. 271:1558, 1994) in a modified Tris-HCl buffer (50 mM Tris-HCl, pH 7.4, 12.5 mM MgCl2, 2 mM EDTA) was used. Compounds of the invention were incubated with 1 nM [^3H]MK-912 for 60 minutes at 25° C. Non-specific binding was estimated in the presence of 10 μM WB-4101. Receptor proteins were filtered and washed, the filters were then counted to determine [^3H]MK-912 specifically bound. Compounds were screened at 1 μM or lower, using 1% DMSO as vehicle. Compounds of the invention were tested in this biochemical assay and percent inhibition of specific binding was determined. Biochemical assay results are presented as the percent inhibition of specific binding in Table 6.

[2] = biological target: T2, rat adrenergic α1A receptor (Rattus norvegicus, UniProt P43140); experiment: Adrenergic α1A radioligand binding ([3H]Prozosin); details: compound at 1 μM; Wistar Rat submaxillary glands; read-out: Adrenergic (1 μM) α1A, percent inhibition of specific binding
T2 construct: obtained from Wistar Rat submaxillary glands; from tissue; host or cells: Wistar rat submaxillary glands
T2 sequence (P43140 1-466): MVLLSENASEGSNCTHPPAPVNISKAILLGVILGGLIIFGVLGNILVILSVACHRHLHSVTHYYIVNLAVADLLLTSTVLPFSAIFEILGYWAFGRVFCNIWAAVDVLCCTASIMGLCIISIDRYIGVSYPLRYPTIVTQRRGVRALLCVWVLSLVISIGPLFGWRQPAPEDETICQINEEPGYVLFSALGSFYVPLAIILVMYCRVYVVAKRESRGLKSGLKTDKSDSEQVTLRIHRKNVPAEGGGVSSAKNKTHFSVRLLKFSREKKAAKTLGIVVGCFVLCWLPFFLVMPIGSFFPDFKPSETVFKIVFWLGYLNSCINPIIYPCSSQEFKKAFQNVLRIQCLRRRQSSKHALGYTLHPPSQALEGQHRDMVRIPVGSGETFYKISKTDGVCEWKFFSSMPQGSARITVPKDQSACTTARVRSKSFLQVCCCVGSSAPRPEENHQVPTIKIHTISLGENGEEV
Experimental: To evaluate in radioligand binding assays the activity of compounds of the invention, rat adrenergic α1A receptor obtained from Wistar Rat submaxillary glands (Michel, A. D. et al., Br. J. Pharmacol. 98:883, 1989) in a modified Tris-HCl buffer (50 mM Tris-HCl buffer, pH 7.4, 0.5 mM EDTA) was used. Compounds of the invention were incubated with 0.25 nM [^3H]Prozosin for 60 minutes at 25° C. Non-specific binding was estimated in the presence of 10 μM phentolamine. Receptor proteins were filtered and washed, the filters were then counted to determine [^3H]Prozosin specifically bound. Compounds of the invention were screened at 1 μM or lower, using 1% DMSO as vehicle. Compounds of the invention were tested in this biochemical assay and percent inhibition of specific binding was determined. Biochemical assay results are presented as the percent inhibition of specific binding in Table 6.

[3] = biological target: T3, human recombinant serotonin (5-Hydroxytryptamine) 5-HT2B receptor (Homo sapiens, UniProt P41595); experiment: Serotonin 5-HT2B radioligand binding ([3H]LSD); details: compound at 1 μM; CHO-K1 cells; read-out: Serotonin (1 μM) 5-HT2B, percent inhibition of specific binding
T3 construct: expressed in transfected cells; host or cells: CHO-K1 cells
Experimental: To evaluate in radioligand binding assays the activity of compounds of the invention, human recombinant serotonin (5-Hydroxytryptamine) 5-HT2B receptor expressed in Chinese hamster ovary (CHO-K1) cells (Bonhaus, D. W. et al., Br. J. Pharmacol. 115:622, 1995) in a modified Tris-HCl buffer (50 mM Tris-HCl, pH 7.4, 4 mM CaCl2, 0.1% Ascorbic Acid) was used. Compounds of invention were incubated with 1.2 nM [^3H]Lysergic acid diethylamide (LSD) for 60 minutes at 37° C. Non-specific binding was estimated in the presence of 10 μM Serotonin (5-HT). Receptor proteins were filtered and washed, the filters were then counted to determine [^3H]LSD specifically bound. Compounds were screened at 1 μM or lower, using 1% DMSO as vehicle. Compounds of the invention were tested in this biochemical assay and percent inhibition of specific binding was determined. Biochemical assay results are presented as the percent inhibition of specific binding in Table 7.

T3 sequence (P41595 whole entry): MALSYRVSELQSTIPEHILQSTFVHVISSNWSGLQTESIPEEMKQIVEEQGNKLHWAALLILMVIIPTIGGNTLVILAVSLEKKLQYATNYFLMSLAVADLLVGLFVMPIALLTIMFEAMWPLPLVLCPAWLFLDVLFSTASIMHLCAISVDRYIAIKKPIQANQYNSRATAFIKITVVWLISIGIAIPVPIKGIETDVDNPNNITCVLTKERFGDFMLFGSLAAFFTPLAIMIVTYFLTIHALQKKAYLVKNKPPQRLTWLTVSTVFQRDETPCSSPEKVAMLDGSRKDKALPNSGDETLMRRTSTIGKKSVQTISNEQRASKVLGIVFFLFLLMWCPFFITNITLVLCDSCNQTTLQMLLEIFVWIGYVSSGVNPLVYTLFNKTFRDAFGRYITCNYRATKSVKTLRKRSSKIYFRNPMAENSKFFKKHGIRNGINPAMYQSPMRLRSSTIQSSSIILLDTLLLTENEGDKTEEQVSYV

| Compound | inhibition at 1 µM [1] | inhibition at 1 µM [2] | inhibition at 1 µM [3] |
| --- | --- | --- | --- |
| CCOC(=O)CCn1c2c(c3cc(C)ccc31)CN(C)CC2 [CD1, ethyl 3-(1,2,3,4-tetrahydro-2,8-dimethylpyrido[4,3-b]indol-5-yl)propanoate] | 42% | 79% | 54% |
| Cc1ccc2c(c1)c1c(n2CC#N)CCN(C)C1 [CD61, 2-(1,2,3,4-tetrahydro-2,8-dimethylpyrido[4,3-b]indol-5-yl)acetonitrile] | 39% | 82% | 43% |
| C#CCn1c2c(c3cc(C)ccc31)CN(C)CC2 [CD73, 2,8-dimethyl-5-(prop-2-ynyl)-2,3,4,5-tetrahydro-1H-pyrido[4,3-b]indole] | 43% | 65% | 94% |
| CNC(=O)CCn1c2c(c3cc(C)ccc31)CN(C)CC2 [Compound 1, 3-(1,2,3,4-tetrahydro-2,8-dimethylpyrido[4,3-b]indol-5-yl)-N-methylpropanamide] | 4% | 5% | 23% |
| CCNC(=O)CCn1c2c(c3cc(C)ccc31)CN(C)CC2 [Compound 2, N-ethyl-3-(1,2,3,4-tetrahydro-2,8-dimethylpyrido[4,3-b]indol-5-yl)propanamide] | 2% | 10% | 20% |
| Cc1ccc2c(c1)c1c(n2CCC(=O)NC2CCCCC2)CCN(C)C1 [Compound 3, N-cyclohexyl-3-(1,2,3,4-tetrahydro-2,8-dimethylpyrido[4,3-b]indol-5-yl)propanamide] | 1% | 8% | 21% |
| Cc1ccc2c(c1)c1c(n2CCC(=O)NC2CCCC2)CCN(C)C1 [Compound 4, N-cyclopentyl-3-(1,2,3,4-tetrahydro-2,8-dimethylpyrido[4,3-b]indol-5-yl)propanamide] | 4% | 35% | 40% |
| CCOC(=O)CCCn1c2c(c3cc(C)ccc31)CN(C)CC2 [Compound 5, ethyl 4-(1,2,3,4-tetrahydro-2,8-dimethylpyrido[4,3-b]indol-5-yl)butanoate] | 50% | 69% | 77% |
| CCNC(=O)CCCn1c2c(c3cc(C)ccc31)CN(C)CC2 [Compound 6, N-ethyl-4-(1,2,3,4-tetrahydro-2,8-dimethylpyrido[4,3-b]indol-5-yl)butanamide] | 48% | 18% | 21% |
| Cc1ccc2c(c1)c1c(n2CCNC(=O)OCC(Cl)(Cl)Cl)CCN(C)C1 [Compound 8, 2,2,2-trichloroethyl 2-(1,2,3,4-tetrahydro-2,8-dimethylpyrido[4,3-b]indol-5-yl)ethylcarbamate] | 22% | 82% | 64% |
| Cc1ccc2c(c1)c1c(n2CCNC(=O)C2CCCNC2)CCN(C)C1 (stereo not drawn) [Compound 9, N-(2-(1,2,3,4-tetrahydro-2,8-dimethylpyrido[4,3-b]indol-5-yl)ethyl)piperidine-3-carboxamide] | -8% | 5% | -5% |
